Tests used:
[1] = target: T1, COX-1 (Homo sapiens, UniProt P23219); experiment: Human COX-1 enzyme activity in human whole blood (A23187-stimulated, thromboxane B2 EIA); assay type: cell-based; details: 100 μM, human whole blood, A23187 stimulation; for inhibition at 100 µM: read-out: COX-1 Inhibition (% at 100 μM)
T1 construct: endogenous in cells; host or cells: heparinised human whole blood from donors, stimulated with the calcium ionophore A23187
Protocol: (§1) The blood was transported to the laboratory on ice packs and used within 1.5 hours of collection. Upon receipt in the laboratory, the blood was allowed to come to room temperature for 15 minutes prior to distribution in 1 mL aliquots per well of 24 well tissue culture plates. […] Test compounds were dissolved in DMSO, at 1000 fold the final desired concentration, and further diluted, as indicated, in DMSO. One μL of each dilution of the test compound was added per well, in duplicate wells; wells not receiving test compound (e.g., basal, background or control wells) received 1 μL DMSO. […] Louis, Mo., Catalogue No. […] Louis, Mo., Catalogue No. […] (Again, basal, background or control wells not stimulated with A23187 received 1 μL of DMSO.) At 5 hours after the addition of the test compound, all incubations were terminated by placement on ice and the addition of 2 mM EGTA (100 μL of 20 mM EGTA, tetrasodium, in PBS (phosphate buffered saline) without Ca^++ and Mg^++, pH 7.2)). […] One hundred μL of plasma was removed from each blood sample and added to 1 mL of methanol in new 15 mL polypropylene centrifuge tubes, vortexed, and stored overnight at -20° C. […] The samples were assayed for thromboxane B2 using EIA kits supplied by Cayman Chemical Co. […] The % inhibition for COX-1 and COX-2 enzyme activity in human whole blood by the test compounds, at the indicated concentrations, are given in Table 1.

[2] = target: T2, COX-2 (Homo sapiens, UniProt P35354); experiment: Human COX-2 enzyme activity in human whole blood (LPS-induced, thromboxane B2 EIA); assay type: cell-based; details: human whole blood, LPS induction; for inhibition at 1 µM: read-out: COX-2 Inhibition (% at 1 μM); for inhibition at 10 µM: read-out: COX-2 Inhibition (% at 10 μM)
T2 construct: To induce COX-2, lipopolysaccharide (LPS) from E. coli; endogenous in cells; host or cells: heparinised human whole blood from donors, with COX-2 induced by E. coli LPS
T2 sequence (P35354 18-604): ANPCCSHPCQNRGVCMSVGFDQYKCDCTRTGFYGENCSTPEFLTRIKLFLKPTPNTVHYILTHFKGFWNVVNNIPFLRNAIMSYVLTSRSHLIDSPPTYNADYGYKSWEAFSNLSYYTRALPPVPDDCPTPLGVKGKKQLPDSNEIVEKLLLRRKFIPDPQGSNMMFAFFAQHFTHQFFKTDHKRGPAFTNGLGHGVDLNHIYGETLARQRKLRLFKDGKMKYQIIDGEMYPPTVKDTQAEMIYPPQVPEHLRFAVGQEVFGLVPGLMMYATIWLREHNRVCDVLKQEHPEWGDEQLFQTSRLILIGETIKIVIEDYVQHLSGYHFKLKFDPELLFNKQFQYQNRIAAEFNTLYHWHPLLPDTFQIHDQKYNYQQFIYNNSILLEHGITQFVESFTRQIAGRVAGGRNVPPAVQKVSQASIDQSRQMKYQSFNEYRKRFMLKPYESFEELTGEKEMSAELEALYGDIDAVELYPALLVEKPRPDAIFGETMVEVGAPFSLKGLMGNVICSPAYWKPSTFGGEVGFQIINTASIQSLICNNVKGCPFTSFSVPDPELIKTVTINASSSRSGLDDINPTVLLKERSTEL
Protocol: as §1

T1 sequence (P23219 24-599): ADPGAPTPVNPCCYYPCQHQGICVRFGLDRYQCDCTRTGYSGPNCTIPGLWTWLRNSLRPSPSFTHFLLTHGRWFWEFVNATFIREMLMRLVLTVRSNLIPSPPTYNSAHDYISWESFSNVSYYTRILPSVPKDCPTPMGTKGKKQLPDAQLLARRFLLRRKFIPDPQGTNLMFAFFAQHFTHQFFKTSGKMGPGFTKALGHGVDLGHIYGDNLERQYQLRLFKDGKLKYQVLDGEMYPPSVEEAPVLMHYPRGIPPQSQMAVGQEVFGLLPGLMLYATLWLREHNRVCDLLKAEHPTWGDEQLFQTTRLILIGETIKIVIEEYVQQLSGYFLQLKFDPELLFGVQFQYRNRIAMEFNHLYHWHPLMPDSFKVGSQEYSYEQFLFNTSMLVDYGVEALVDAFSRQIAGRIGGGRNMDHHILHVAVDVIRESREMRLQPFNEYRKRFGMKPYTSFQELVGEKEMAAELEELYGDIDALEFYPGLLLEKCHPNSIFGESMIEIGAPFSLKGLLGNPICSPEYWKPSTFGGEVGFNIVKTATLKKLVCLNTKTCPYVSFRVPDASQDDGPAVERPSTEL

Row | Molecule | inhibition at 100 µM [1] | inhibition at 1 µM [2] | inhibition at 10 µM [2] | COX-1 Inhibition (% at 100 μM) [1] | COX-2 Inhibition (% at 1 μM) [2] | COX-2 Inhibition (% at 10 μM) [2]
1 | 4-(5-(4-Chlorophenyl)-3-((3-hydroxypropoxy)methyl)pyrazolyl)-benzenesulfonamide [Example 36b] | – | – | – | 30% | 30% | 55%
2 | 4-(5-(4-Chlorophenyl)-3-((3-hydroxypropoxy)methyl)pyrazolyl)benzenesulfonamide [Example 28a] | – | – | – | 30% | 30% | 55%
3 | 4-(5-(Chlorophenyl)-3-((3-(nitrooxy)propoxy)methyl)benzene-sulfonamide [Example 36c] | – | – | – | 55% | 40% | 80%
4 | CS(=O)(=O)c1ccc(-c2cc(CO)nn2C2CCCCCCC2)cc1 [Example 1g] | – | – | – | 35% | 35% | 75%
5 | CS(=O)(=O)c1ccc(-c2cc(CO[N+](=O)[O-])nn2C2CCCCCCC2)cc1 [Example 1h] | – | – | – | 60% | 50% | 90%
6 | CS(=O)(=O)c1ccc(-c2cc(/C=C\CCO)nn2C2CCCCC2)cc1 [Example 4e, 1-(3-((1Z)-4-(Hydroxy)but-1-enyl)-1-cyclohexylpyrazol-5-yl-4-methylsulfonyl)benzene] | – | – | – | 45% | 30% | 70%

Continued, in another order:

Row | inhibition at 100 µM [1] | inhibition at 1 µM [2] | inhibition at 10 µM [2] | Molecule | COX-1 Inhibition (% at 100 μM) [1] | COX-2 Inhibition (% at 1 μM) [2] | COX-2 Inhibition (% at 10 μM) [2]
7 | 40% | 10% | 25% | CS(=O)(=O)c1ccc(-c2cc(CO)nn2C2CCCCCC2)cc1 [Example 2c, 1-(1-Cycloheptyl-3-(hydroxymethyl)pyrazol-5-yl)-4-(methylsulfonyl)benzene] | – | – | –
8 | 0% | 60% | 90% | CS(=O)(=O)c1ccc(-c2cc(C(=O)CCCO)nn2C2CCCCC2)cc1 [Example 3e, 1-(1-Cyclohexyl-5-(4-(methylsulfonyl)phenyl)pyrazol-3-yl)-4-hydroxybutan-1-one] | – | – | –
9 | 25% | 20% | 80% | CS(=O)(=O)c1ccc(-c2cc(COCCCO)nn2-c2ccccc2)cc1 [Example 5d, 4-(3-((3-Hydroxypropoxy)methyl)-1-phenylpyrazol-5-yl)-1-(methylsulfonyl)benzene] | – | – | –
10 | 40% | 50% | 85% | CS(=O)(=O)c1ccc(-c2cc(C(F)(F)OCCCO)nn2-c2ccccc2)cc1 [Example 6e, 1-(3-(Difluoro(3-hydroxypropoxy)methyl)-1-phenylpyrazol-5-yl)-4-(methylsulfonyl)benzene] | – | – | –
11 | 80% | 50% | 95% | CS(=O)(=O)c1ccc(-c2cc(C(F)(F)OCCCO[N+](=O)[O-])nn2-c2ccccc2)cc1 [Example 6f, 1-(3-(Difluoro(3-(nitrooxy)propoxy)methyl)-1-phenylpyrazol-5-yl)-4-(methylsulfonyl)benzene] | – | – | –
12 | 80% | 25% | 95% | CS(=O)(=O)c1ccc(-c2cc(COCCCO)nn2-c2ccc(Cl)cc2)cc1 [Example 7d, 1-(1-(4-Chlorophenyl)-3-((3-hydroxypropoxy)methyl)pyrazol-5-yl)-4-(methylsulfonyl)benzene] | – | – | –

— US7442802B2, “Cyclooxygenase-2 selective inhibitors, compositions and methods of use” (NitroMed, Inc., priority 2002, dated 2008)
